“And” between values parts separate entries of the source, which are not always exact repeats. Identical values can stand only once. “Also recorded” adds a separate entry of the source.
Tests used:
[1] = system: OCD patients resistant to SRI plus antipsychotic therapy; test: Ondansetron augmentation therapy (SRI and antipsychotic), single-blind 12-week study; format: in vivo, human
Text: Between March 2008 and November 2008, fourteen adults aged 18 to 55 were enrolled in a study at the Institute for Neuroscience, Florence, Italy. […] All diagnoses were established utilizing a structured interview, the Structured Clinical Interview for DSM IV Axis I Disorders (SCID I). (See Spitzer, R. L. et al. ARCH GEN PSYCHIATRY 49(8):624-649) Potential subjects with a history of alcohol or substance abuse, current severe depressive symptoms, bipolar disorder, panic disorder, schizophrenia, other psychiatric conditions, heart disease, arrhythmia, liver problems (including cirrhosis), seizures, glaucoma or serious medical disease were excluded. Patients with hoarding as their only OCD symptom and women of childbearing potential not using a medically acceptable contraceptive method were also excluded. After being fully informed about the study and signing an informed consent approved by the Internal Institutional Review Board, subjects were administered an ondansetron hydrochloride (oral solution) dosage of 0.25 mg twice a day for 6 weeks, followed by 0.5 mg twice a day for 6 weeks for a total observation period of 12 weeks. […] The Y-BOCS, Montgomery-Asberg Depression Rating Scale (MADRS) (see Montgomery, S. A., BR J PSYCHIATRY 1979; 134:382-389) was administered at screening and baseline, and these assessments were repeated at every follow-up visit at 2-week intervals, along with the Clinical Global Impressions-Improvement (CGI-I) rating (see Guy, W. ECDEU Assessment Manual for Psychopharmacology. US Dept Health, Education, and Welfare publication (ADM) 76-338. Rockville, Md.: National Institute of Mental Health; 1976:218-222) and an unpublished Drug Effect scale. The Drug Effect scale asked subjects to rate “How anxious are you now?” on a scale of zero (not at all) to 10 (“the most anxious I have ever been”). Similar rating questions have been “Do you experience appearance or increment in frequency of headaches?”, “Do you experience appearance or increment in frequency of headaches fatigue?” and “Do you experience appearance or increment in frequency of headaches constipation” and so on regarding other common ondansetron side effects (diarrhea, urinary retention, itching, and dizziness). Furthermore, each evening during the first week of study medication, a study psychiatrist called the subject to ask for major or unexpected collateral effects (as chest pain, an unexplained skin rash, or tremors.). […] (See […]. et al., Am J PSYCHIATRY 1997; 154:320-321) Subjects with MADRS scores ≧18 were excluded. Ratings were administered by an investigator who was blind to the treatment condition of the patients. Given the small sample size, mean changes from baseline in rating scales were tested with a non-parametric method based on ranks (Wilcoxon signed rank test), using a two-tailed significance level of p≦0.05. Relationships among rated and demographical variables were tested with Spearman's rank correlation tests, using a two-tailed significance level of p≦0.05. Age, baseline OCD severity, and depressive symptoms were controlled for by stratifying through the Mantel-Haenszel χ2 test. Body mass index (BMI) was adjusted given the differences of ondansetron bioavailability according to BMI.

[2] = system: patients with treatment-resistant OCD under stable treatment with SRIs; test: Ondansetron augmentation therapy (SRI), single-blind 12-week study with 4-week discontinuation follow-up; format: in vivo, human; set-up: average reduction in CGI scores for the whole group / YBOCS % Reduction, 6 Weeks: concentration or dose not given beside the values; settings: for worsening of YBOCS symptoms during the discontinuation phase: after Week 12
Description: Twenty-one patients with a DSM-IV diagnosis of treatment-resistant OCD, under stable treatment with SRIs approved by the FDA for OCD therapy, received 12 weeks of single-blind ondansetron augmentation initiated at a dose of 0.25 mg twice daily for 2 weeks, and titrated to 0.5 mg twice daily for 10 weeks. Patients were rated every two weeks using the Yale Brown Obsessive Compulsive Scale (YBOCS) and Clinical Global Impressions Scale (CGI). Treatment-resistant patients were defined as having completed an adequate trial of SRIs at a moderate to high dose for at least 12 weeks and still having a YBOCS severity of >24, and CGI-Severity of ≧4. Treatment response was defined as an additional 25% reduction in YBOCS score from YBOCS score at the initiation of ondansetron augmentation, an end of treatment (EOT) period YBOCS of ≦24, and CGI-Improvement (CGI-I) of ≦2. Additionally, ondansetron was discontinued after 12 weeks and patients were followed up for another 4 weeks for relapse in YBOCs symptoms.

[3] = system: mesenteric bed or the nerves in the heart; settings: animal studies; cited from earlier work
[4] = end of 6th week, non responders (n = 5)
[5] = end of 6th week, responders (n = 9)
[6] = end of 12th week, non responders (n = 5)
[7] = end of 12th week, responders (n = 9)
[8] = individual patients 1-14, versus baseline
[9] = end of 6th week, non responders (n = 9)
[10] = end of 12th week, non responders (n = 9)
[11] = end of 12th week, responders (n = 12)
[12] = individual patients, versus baseline
[13] = individual patients, EC: week 1 score carried forward

decreased appetite (number of patients) ([1]; first 2 weeks of treatment): two
headache (number of patients) ([1]; first 2 weeks of treatment): two
mild increase in anxiety levels (number of patients) ([1]; lasted only one night): One
Structure (SMILES): Cc1nccn1CC1CCc2c(c3ccccc3n2C)C1=O (stereo not drawn) [ondansetron]
average YBOCS score change of the whole group (decrease) ([1]; 6 weeks, n = 14): 16%
YBOCS score decrease, Patient 11 ([1]; 12th week, with citalopram 60 mg/day and risperidone 2 mg/day): 35%
responders to ondansetron among patients on risperidone ([1]; 12 weeks, six of seven patients): 86%
side effects throughout the study (severity) ([1]; 12 weeks, up to 1 mg/day): mild to moderate
patients meeting YBOCS criteria for treatment response (reduction >25%) ([1]; end of 6th week, 3/14 patients): 21.4%
CGI (mean, SD) [1, 4]: 4.6 (1.5)
MADRS (mean, SD) [1, 4]: 8.0 (4.0)
YBOCS (mean, SD) [1, 4]: 22.8 (3.8)
CGI (mean, SD) [1, 5]: 3.4 (1.6)
MADRS (mean, SD) [1, 5]: 6.7 (2.4)
YBOCS (mean, SD) ([1]; end of 6th week, responders (n = 9), 0.25 mg twice a day added to SRI + antipsychotic): 22.6 (4.2)
CGI (mean, SD) [1, 6]: 4.8 (1.3)
MADRS (mean, SD) [1, 6]: 7.6 (3.8)
YBOCS (mean, SD) [1, 6]: 21.4 (6.1)
CGI (mean, SD) [1, 7]: 2.3 (1.2)
MADRS (mean, SD) [1, 7]: 6.8 (2.0)
YBOCS (mean, SD) ([1]; end of 12th week, responders (n = 9), 0.5 mg twice a day in weeks 7-12): 20.8 (4.1)
average YBOCS change score of the whole group (decrease) ([1]; end of 12 weeks, n = 14): 23% and 23.2%
significant side effects ([1]; fourteen subjects): None of the fourteen subjects experienced significant side effects or worsening of OC symptoms; also recorded: None of the subjects experienced significant or lasting side effects
Mean MADRS scores ([1]; from baseline to the end of week 1): did not change significantly
YBOCS Score, 6 Weeks ([1]; individual patients 1-14): 25 (3×) and 28 and 17 (2×) and 16 and 27 and 26 and 24 (3×) and 19 and 21
YBOCS Score, 12 Weeks ([1]; individual patients 1-14): 25 (3×) and 15 (2×) and 14 and 30 and 23 and 22 (2×) and 24 and 18 and 17 and 20
Percent Reduction at 6 weeks (YBOCS) [1, 8]: 3.84% and 28.57% and 20.00% (2×) and 15.00% and 12.90% and 21.20% and 31.42% and 27.27% and 20.80% and 4.54% and 10.52% and .00% and 19.32%
Percent Reduction at 12 weeks (YBOCS) [1, 8]: 3.84% and 28.57% (2×) and 25.00% (2×) and 30.00% and 3.22% and 27.27% (2×) and 37.14% and 22.72% and 21.05% and 16.60% and 29.03%
Clinical Global Impressions-Improvement (CGI-I) scores ([1]; through week 12 (FIG. 4)): improved concurrent with improvement in the YBOCS scores
mean pulse rate or mean blood pressure ([1]; throughout the study): No change
course after discontinuation of the ondansetron ([1]; two responder patients): experienced worsening
tolerability of treatment ([2]; 12 weeks, up to 0.5 mg twice daily): well tolerated
% Decrease in YBOCS Scores ([2]; All Patients, week 2): 12.66%
Avg YBOCS Scores ([2]; All Patients, week 2): 26.29
% Decrease in YBOCS Scores ([2]; All Patients, week 4): 16.93%
Avg YBOCS Scores ([2]; All Patients, week 4): 25
% Decrease in YBOCS Scores ([2]; All Patients, week 6): 19.3%
Avg YBOCS Scores ([2]; All Patients, week 6): 24.29
% Decrease in YBOCS Scores ([2]; All Patients, week 8): 21.99%
Avg YBOCS Scores ([2]; All Patients, week 8): 23.48
% Decrease in YBOCS Scores ([2]; All Patients, week 10): 24.21%
Avg YBOCS Scores ([2]; All Patients, week 10): 22.81
% Decrease in YBOCS Scores ([2]; All Patients, week 12): 26.27%
Avg YBOCS Scores ([2]; All Patients, week 12): 22.19
Avg YBOCS Scores ([2]; All Patients, week 14 (ondansetron discontinued after week 12)): 24.95
Avg YBOCS Scores ([2]; All Patients, week 16 (ondansetron discontinued after week 12)): 25.43
% Decrease in YBOCS Scores ([2]; Non-Responders, week 2): 2.93%
% Decrease in YBOCS Scores ([2]; Non-Responders, week 4): 2.93%
% Decrease in YBOCS Scores ([2]; Non-Responders, week 6): 2.56%
% Decrease in YBOCS Scores ([2]; Non-Responders, week 8): 2.2%
% Decrease in YBOCS Scores ([2]; Non-Responders, week 10): 1.47%
% Decrease in YBOCS Scores ([2]; Non-Responders, week 12): 2.93%
% Decrease in YBOCS Scores ([2]; Responders, week 2): 20.06%
% Decrease in YBOCS Scores ([2]; Responders, week 4): 27.58%
% Decrease in YBOCS Scores ([2]; Responders, week 6): 32.03%
% Decrease in YBOCS Scores ([2]; Responders, week 8): 37.05%
% Decrease in YBOCS Scores ([2]; Responders, week 10): 41.5%
% Decrease in YBOCS Scores ([2]; Responders, week 12): 44.01%
patients experiencing a treatment response in 12 weeks or less ([2]; Twelve of the 21 patients): 57%
difference between YBOCS score at baseline and after 12 weeks, non-responders ([2]; after 12 weeks): 2.9%
reduction in CGI-I from baseline, responders ([2]; after 12 weeks): 77%
reduction in YBOCS from baseline, responders ([2]; after 12 weeks): 44%
worsening of YBOCS symptoms during the discontinuation phase ([2]; all patients): 14.6%
worsening of YBOCS symptoms during the discontinuation phase ([2]; responders): 38.3%
patients experiencing response within the first 6 weeks ([2]; eight of 21 patients, 25% improvement in YBOCS, EOT YBOCS <24, CGI-I=1-2): 38%
CGI (mean, SD) [2, 9]: 4.63 (0.5)
YBOCS (mean, SD) [2, 9]: 29.56 (4.0)
CGI (mean, SD) ([2]; end of 6th week, responders (n = 12)): 1.92 (0.7)
YBOCS (mean, SD) ([2]; end of 6th week, responders (n = 12), added to SRI): 20.33 (3.8)
CGI (mean, SD) [2, 10]: 4.88 (0.4)
YBOCS (mean, SD) [2, 10]: 29.44 (4.8)
CGI (mean, SD) [2, 11]: 1.17 (0.4)
YBOCS (mean, SD) [2, 11]: 16.75 (2.7)
CGI-I Score, 6 Weeks ([2]; individual patients): 2 (7×) and 3 (2×) and 5 (6×) and 1 (3×) and 4 (3×)
CGI-I Score, 12 Weeks ([2]; individual patients): 1 (10×) and 5 (8×) and 4 and 2 (2×)
YBOCS % Reduction, 6 Weeks [2, 12]: 31.25% and 34.48% and 9.68% and 16.00% and 32.14% and 34.38% and 42.42% and 28.95% and 27.27% and 7.69% and 41.67% and 0.00% (3×) and 5.00% and 37.04% and 19.35% and −3.57% (2×) and 40.74% and 6.06%
YBOCS % Reduction, 12 Weeks [2, 12]: 34.38% and 41.38% and 9.68% and 44.00% and 42.86% and 50.00% and 51.52% and 44.74% and 42.42% and 11.54% and 45.83% and 13.79% and 2.50% and −6.25% and 48.15% and 38.71% and −7.14% and −3.57% and 44.44% and −3.85% and 9.09%
YBOCS Score, 6 Weeks [2, 13]: 22 and 19 (3×) and 28 and 21 (2×) and 27 and 24 (2×) and 14 and 29 (3×) and 38 and 32 and 17 and 25 and 16 and 26 and 31
YBOCS Score, 12 Weeks [2, 13]: 21 (2×) and 17 and 28 and 14 (2×) and 16 (3×) and 19 (2×) and 23 and 13 and 25 and 39 and 34 and 30 (2×) and 29 and 15 and 27
average reduction in CGI scores for the whole group ([2]; n = 21, 12 weeks): 46%
average reduction in YBOCS-rated symptoms of the whole group ([2]; n = 21, 12 weeks): 26.3%
effect on the mesenteric bed or the nerves in the heart [3]: did not appear to have effect on the mesenteric bed or the nerves in the heart

From US20120071464A1, “METHOD OF TREATMENT OF OBSESSIVE COMPULSIVE DISORDER WITH ONDANSETRON” (priority 2009, published 2012)
